According to ChEMBL document CHEMBL1135299, “Design, synthesis and biological activity of novel non-peptidyl endothelin converting enzyme inhibitors, 1-phenyl-tetrazole-formazan analogues” (Bioorg Med Chem Lett, 2002):

These compounds were tested against T1, Endothelin-converting enzyme 1 (Rattus norvegicus) (UniProt P42893) (assay: Tested in vitro for percent inhibition of Endothelin-converting enzyme (ECE) of rat lung membrane at 10 uM).
T1 sequence (whole entry): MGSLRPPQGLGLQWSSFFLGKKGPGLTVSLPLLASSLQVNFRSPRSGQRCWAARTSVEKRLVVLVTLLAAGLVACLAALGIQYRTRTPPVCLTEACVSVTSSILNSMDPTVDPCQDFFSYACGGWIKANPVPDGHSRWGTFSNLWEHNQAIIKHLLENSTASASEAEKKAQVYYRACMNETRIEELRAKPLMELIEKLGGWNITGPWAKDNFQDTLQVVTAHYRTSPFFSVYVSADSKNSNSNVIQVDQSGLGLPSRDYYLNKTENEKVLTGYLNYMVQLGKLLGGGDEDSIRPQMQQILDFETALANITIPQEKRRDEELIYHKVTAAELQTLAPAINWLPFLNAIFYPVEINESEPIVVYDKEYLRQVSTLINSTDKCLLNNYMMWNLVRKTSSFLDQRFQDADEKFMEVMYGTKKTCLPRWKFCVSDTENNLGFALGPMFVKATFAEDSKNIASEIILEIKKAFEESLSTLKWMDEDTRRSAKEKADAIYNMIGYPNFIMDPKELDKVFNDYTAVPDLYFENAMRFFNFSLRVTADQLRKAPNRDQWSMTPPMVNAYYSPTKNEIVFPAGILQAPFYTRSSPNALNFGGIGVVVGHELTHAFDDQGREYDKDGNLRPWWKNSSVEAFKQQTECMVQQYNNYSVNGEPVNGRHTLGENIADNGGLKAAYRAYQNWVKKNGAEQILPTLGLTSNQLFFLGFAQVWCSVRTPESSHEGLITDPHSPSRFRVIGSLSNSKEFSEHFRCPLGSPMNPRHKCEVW
Format: tissue-based

Row | inhibition | Compound
1 | 37% | Clc1ccc(N/N=C(\N=N\c2nnnn2-c2ccccc2)c2ccccc2)cc1

The compounds below were run against T2, Endothelin-converting enzyme 1 (Rattus norvegicus, UniProt P42893) (assay: Tested in vitro for inhibition of Endothelin-converting enzyme (ECE) of rat lung membrane).
T2 sequence (P42893 whole entry): T1 sequence (whole entry)
Format: tissue-based

Row | Compound | IC50
2 | CC(C)(C)c1ccc(N/N=C(\N=N\c2nnnn2-c2ccccc2)c2ccccc2)cc1 | 3.8 µM
3 | CCC(C)c1ccc(N/N=C(\N=N\c2nnnn2-c2ccccc2)c2ccccc2)cc1 (stereo not given) | 2.7 µM
4 | CCCc1ccc(N/N=C(\N=N\c2nnnn2-c2ccccc2)c2ccccc2)cc1 | 2.6 µM
5 | c1ccc(C(=N/Nc2ccc(C3CCCCC3)cc2)/N=N/c2nnnn2-c2ccccc2)cc1 | 3.6 µM
6 | c1ccc(N/N=C(\N=N\c2nnnn2-c2ccccc2)c2ccccc2)cc1 | 10 µM

Continued, values first:

Row | IC50 | Compound
7 | 3.8 µM | CCc1ccc(N/N=C(\N=N\c2nnnn2-c2ccccc2)c2ccccc2)cc1
8 | 0.042 µM | Cc1nn(-c2ccccc2)c(NC(=O)NS(=O)(=O)c2ccc(Cl)cc2)c1C#N
9 | 8.4 µM | Cc1ccc(N/N=C(\N=N\c2nnnn2-c2ccccc2)c2ccccc2)cc1
10 | 3.4 µM | CC(C)c1ccc(N/N=C(\N=N\c2nnnn2-c2ccccc2)c2ccccc2)cc1
